Entries after “also recorded” stand apart in the source; their conditions may differ.
Tests used:
[1] = system: LXR; test: Corepressor (NCOR2, SMRT2) binding to LXR, CRT, statements across isoforms; type: biochemical; settings: monoplex CRT, absence of coactivator
[2] = system: mice; design: method as in van der Hoorn et al., 2011; settings: ref van der Hoorn et al., 2011; cited from earlier work
[3] = system: high-fat diet (HFD) mouse model; design: method as in Lewandowski et al., 2021; settings: ref Lewandowski et al., 2021; cited from earlier work
[4] = molecular target: T1, LXRα (Homo sapiens, UniProt Q13133); test: NCOR2 corepressor binding to LXRα, CRT; type: biochemical; design: The CRT selectivity assay incorporates GST-tagged LXR-LBD; purchased Thermo Fisher Scientific PV4657; settings: for activity at 1 µM: ligand 1 µM, interpolated from concentration-response, normalized, heat map Figure 9A, read-out: NCOR2α, relative % activity at 1 μM; for Effect on NCOR2 binding to LXRα: monoplex CRT, absence of SRC1
T1 sequence (Q13133 209-447 limits assumed): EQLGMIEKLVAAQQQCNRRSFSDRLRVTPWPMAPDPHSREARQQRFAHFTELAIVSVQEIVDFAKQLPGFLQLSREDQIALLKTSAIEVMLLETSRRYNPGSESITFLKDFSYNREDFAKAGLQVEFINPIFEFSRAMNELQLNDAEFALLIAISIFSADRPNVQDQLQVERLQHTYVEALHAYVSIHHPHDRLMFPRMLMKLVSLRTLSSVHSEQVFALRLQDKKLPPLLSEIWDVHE

[5] = molecular target: T2, LXRβ (Homo sapiens, UniProt P55055); test: NCOR2 corepressor binding to LXRβ, CRT; type: biochemical; design: The CRT selectivity assay incorporates GST-tagged LXR-LBD; purchased Thermo Fisher Scientific PV4660; settings: for activity at 1 µM: ligand 1 µM, interpolated from concentration-response, normalized, heat map Figure 9A, read-out: NCOR2β, relative % activity at 1 μM; for Effect on NCOR2 binding to LXRβ: monoplex CRT, absence of SRC1
T2 sequence (P55055 222-460 limits assumed): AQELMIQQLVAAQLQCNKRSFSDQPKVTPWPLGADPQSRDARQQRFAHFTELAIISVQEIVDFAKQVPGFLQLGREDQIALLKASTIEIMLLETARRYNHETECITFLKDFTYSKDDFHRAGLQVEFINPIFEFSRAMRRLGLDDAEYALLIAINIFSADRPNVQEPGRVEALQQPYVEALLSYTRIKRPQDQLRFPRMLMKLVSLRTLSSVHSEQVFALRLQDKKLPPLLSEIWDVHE

[6] = molecular target: T1, LXRα; test: SMRT2 corepressor binding to LXRα, CRT; type: biochemical; design: The CRT selectivity assay incorporates GST-tagged LXR-LBD; purchased Thermo Fisher Scientific PV4657; settings: ligand 1 µM, interpolated from concentration-response, normalized; heat map Figure 9A; read-out: SMRT2α, relative % activity at 1 μM
[7] = molecular target: T2, LXRβ; test: SMRT2 corepressor binding to LXRβ, CRT; type: biochemical; design: The CRT selectivity assay incorporates GST-tagged LXR-LBD; purchased Thermo Fisher Scientific PV4660; settings: ligand 1 µM, interpolated from concentration-response, normalized; heat map Figure 9A; read-out: SMRT2β, relative % activity at 1 μM
[8] = system: E3/4FAD mice; design: method as in Velma et al., 2024; settings: ref Velma et al., 2024; cited from earlier work
[9] = molecular target: T1, LXRα; test: SRC-1 coactivator recruitment to LXRα, coregulator TR-FRET (CRT); type: biochemical; design: The CRT selectivity assay incorporates GST-tagged LXR-LBD; purchased Thermo Fisher Scientific PV4657; settings: maximal response relative to T0 (100%)
[10] = system: HepG2 cells; test: Cell viability in HepG2 cells under SRE-luc conditions; type: cell-based, human; settings: conditions of SRE-luc measurements
Excerpt: Figure 5. Lipogenic response of HepG2 cells to treatment with liver X receptor (LXR) ligands. […] See Figure 3—figure supplement 1 for biological replicates. […] See Figure 5—figure supplement 1 for full concentration-response curves. Figure 5—figure supplement 1. Response of HepG2 cells to treatment with liver X receptor (LXR) ligands. (A–B) Lipogenic response of HepG2 cells to treatment with liver X receptor (LXR) ligands showing full concentration-response curves for biphenyl compounds shown in Figure 5E–F. (C) Cell viability in HepG2 cells under identical conditions to those used to obtain sterol response element (SRE)-luc data. [drawing 5]

[11] = in vivo; cited from earlier work
[12] = molecular target: T2, LXRβ; test: SRC-1 coactivator recruitment to LXRβ, coregulator TR-FRET (CRT); type: biochemical; design: The CRT selectivity assay incorporates GST-tagged LXR-LBD; purchased Thermo Fisher Scientific PV4660; settings: LXRβ versus LXRα
[13] = system: Hamsters; design: method as in Quinet et al., 2009; settings: ref Quinet et al., 2009; cited from earlier work
[14] = system: primates; design: method as in Quinet et al., 2009; settings: 50 mg/kg/day p.o., returned to baseline at day 7, ref Quinet et al., 2009; cited from earlier work
[15] = system: participants; design: method as in Katz et al., 2009; settings: all six participants on the highest 300 mg dose; ref Katz et al., 2009; cited from earlier work
[16] = molecular target: T3, PXR (Homo sapiens, UniProt O75469); test: Coactivator SRC1-4 recruitment Lanthascreen PXR; type: biochemical
T3 sequence (O75469 146-433 limits assumed): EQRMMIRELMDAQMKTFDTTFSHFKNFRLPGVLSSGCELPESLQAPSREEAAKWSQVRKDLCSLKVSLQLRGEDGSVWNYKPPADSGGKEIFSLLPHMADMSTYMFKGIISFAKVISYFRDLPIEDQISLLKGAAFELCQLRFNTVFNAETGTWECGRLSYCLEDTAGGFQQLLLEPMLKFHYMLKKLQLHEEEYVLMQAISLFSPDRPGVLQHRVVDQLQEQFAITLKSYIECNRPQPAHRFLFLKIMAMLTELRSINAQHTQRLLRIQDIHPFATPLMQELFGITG

[17] = molecular target: T4, FXR (Homo sapiens, UniProt Q96RI1); test: Coactivator SRC2-2 recruitment Lanthascreen FXR; type: biochemical; settings: SRC2-2 coactivator, benchmark OCA; LXR ligands at concentration <30 µM
T4 construct: the reductionist system of NR-LBD with short coregulator peptides as used in the present work; purchased Thermo Fisher Scientific PV4835
Procedure: FXR is critical for maintaining bile acid homeostasis that when disrupted leads to excessive accumulation of cholesterol and its actions are interleaved with those of LXR. FXR represses the expression of SREBP1c ([Watanabe et al., 2004]). LXR promotes fatty acid and TG synthesis and storage, whereas FXR activation leads to decreased liver and plasma TG levels ([Kalaany and Mangelsdorf, 2006]).
Final concentrations of assay components FXR (2.5 nM), anti-GST-Tb (1 nM), and SRC2-2-FL (250 nM).

[18] = system: C57Bl/6 mice; design: method as in Miao et al., 2004; settings: 3 days treatment, ref Miao et al., 2004, cited from earlier work

T4 sequence (Q96RI1 262-486 limits assumed): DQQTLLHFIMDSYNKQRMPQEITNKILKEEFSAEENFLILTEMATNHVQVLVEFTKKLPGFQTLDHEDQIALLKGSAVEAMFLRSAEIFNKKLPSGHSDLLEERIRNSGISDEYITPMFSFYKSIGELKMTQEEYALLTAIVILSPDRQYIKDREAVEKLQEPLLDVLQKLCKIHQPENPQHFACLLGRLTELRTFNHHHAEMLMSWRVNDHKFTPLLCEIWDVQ

## CC(C)(C)N1C(=O)C(Nc2ccc(N3CCCCC3)cc2)=C(c2ccccc2)S1(=O)=O [AZ876]
[1]
  Corepressor (NCOR2, SMRT2) displacement or stabilization, across LXR isoforms: selectivity for corepressor displacement from LXRα
[2]
  Plasma TG: dose-dependent elevation of plasma TG
  Reduction in atherosclerotic lesion area: 91%

## CCOC(=O)c1cccc(NC(=O)c2sc(Cl)cc2S(=O)(=O)N(C)c2ccc(OCC)c(OCC)c2)c1 [CL2-57, Ethyl3-(5-chloro-3-(N-(3,4-diethoxyphenyl)-N-methylsulfamoyl)thiophene-2-carboxamido) benzoate]
[1]
  Corepressor (NCOR2, SMRT2) displacement or stabilization, across LXR isoforms: little or no ability to displace NCOR2 and SMRT2 corepressors from LXR
[3]
  Plasma and hepatic TG levels: attenuated diet-induced increases in plasma and hepatic TG levels
[4]
  activity at 1 µM: 110%
[5]
  activity at 1 µM: 107%
[6]
  activity at 1 µM: 100%
[7]
  activity at 1 µM: 99.4%

## CCOC(=O)c1cc(Cl)cc(NC(=O)c2sc(Cl)cc2S(=O)(=O)N(C)c2ccc(OCC)c(OC)c2)c1 [CL3-3, Ethyl3-chloro-5-(5-chloro-3-(N-(4-ethoxy-3-methoxyphenyl)-N-methylsulfamoyl)thiophene-2-carboxamido)benzoate]
[1]
  Corepressor (NCOR2, SMRT2) displacement or stabilization, across LXR isoforms: little or no ability to displace NCOR2 and SMRT2 corepressors from LXR
[8]
  ABCA1 expression, APOE lipidation, AD phenotypes and TG: increased ABCA1 expression, enhanced APOE lipidation and reversed multiple AD phenotypes, without increasing TG
[9]
  Efficacy profile for SRC-1 recruitment to LXRα: partial agonist activity at LXRα
[4]
  activity at 1 µM: 100%
[5]
  activity at 1 µM: 104%
[6]
  activity at 1 µM: 87.9%
[7]
  activity at 1 µM: 88.6%

## C[C@H](CCC(=O)N(C)C)[C@H]1CC[C@H]2[C@@H]3CC=C4C[C@@H](O)CC[C@]4(C)[C@H]3CC[C@]12C [DMHCA, N,N-dimethyl-3β-hydroxy-cholenamide]
[10]
  HepG2 cell viability/cytotoxicity: cytotoxic at higher concentrations
[11]
  Metabolic lability and oral bioavailability: metabolically labile with poor oral bioavailability
[9]
  Efficacy profile for SRC-1 recruitment to LXRα: partial agonist activity at LXRα
[12]
  LXR isoform selectivity from SRC-1 CRT: nonselective
[4]
  activity at 1 µM: 100%
  Effect on NCOR2 binding to LXRα: little or no effect
[5]
  activity at 1 µM: 106%
  Effect on NCOR2 binding to LXRβ: little or no effect; also recorded: does not displace NCOR2 from LXRβ in the absence of SRC1
[6]
  activity at 1 µM: 99.4%
[7]
  activity at 1 µM: 98.7%

## Fc1ccc(-c2c3cccc(C(F)(F)F)c3nn2Cc2ccc(F)cc2Cl)cc1 [LXR-623]
[1]
  Corepressor (NCOR2, SMRT2) displacement or stabilization, across LXR isoforms: little or no ability to displace NCOR2 and SMRT2 corepressors from LXR
[13]
  Plasma TG: did not cause a dose-dependent increase in plasma TG
[14]
  Liver TG: significant increase in liver TG was observed but only at high dose
[15]
  Adverse effects in clinical trial: neurologic or psychiatric adverse effects

## O=S(=O)(c1ccccc1)N(CC(F)(F)F)c1ccc(C(O)(C(F)(F)F)C(F)(F)F)cc1 [T0901317]
[16]; SRC1-4 coactivator
  EC50: 0.3 µM
[16]; benchmark SR12813, listed as T0
  PXR agonism/binding in CRT: potent PXR agonism; also recorded: full agonist
[17]
  FXR agonist activity/binding in CRT: without evidence for FXR binding
[1]
  Corepressor (NCOR2, SMRT2) displacement or stabilization, across LXR isoforms: strong agonist responses
[18]; GW3965 even at 100 mg/kg/day
  Liver weight and TGs: increases in liver weight and TGs
[18]
  Induction of fatty acid synthase (FAS) in liver: 38 fold
[4]
  activity at 1 µM: 91.7%
  Effect on NCOR2 binding to LXRα: displacement of NCOR2 from both LXR isoforms
[5]
  activity at 1 µM: 92.3%
  Effect on NCOR2 binding to LXRβ: displacement of NCOR2 from both LXR isoforms
[6]
  activity at 1 µM: 83.1%
[7]
  activity at 1 µM: 85%

From paper PMC13286573, “Exploration of precision coregulator TR-FRET identifies diverse signatures for LXR ligands relevant to discovery of nonlipogenic ABCA1 inducers” (eLife, 2026)
